# Test results from patent publication US20060069132A1, “Azolecarboxamide herbicides” (priority 2004, published 2006).
# Legend:
# [1] = test system: cocklebur; assay: Test C pre-/postemergence herbicide test; type: in vivo, Xanthium strumarium
# Method in brief: (§1)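 Visual injury scores run from 0 (no effect) to 100 (complete control), assessed relative to untreated controls 12 to 14 days after treatment in the greenhouse. Chemicals were formulated in a non-phytotoxic solvent mixture with surfactant and applied to soil after planting or to emerged plants at the 1- to 4-leaf stage.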
# [2] = test system: barnyardgrass; assay: Test A pre-/postemergence herbicide test; type: in vivo, Echinochloa crus-galli
# Method in brief: (§2)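 Pre: seeded sandy loam, directed soil spray, compound in non-phytotoxic solvent + surfactant. Post: 1–2-leaf plants (2–10 cm), sprayed to runoff. Greenhouse ~10 d; visual injury vs untreated, 0–100 scale.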
# [3] = test system: ducksalad; assay: Test C flooded paddy test; type: in vivo, Heteranthera limosa
# [4] = test system: morningglory; assay: Test A pre-/postemergence herbicide test; type: in vivo, Ipomoea spp.
# Method in brief: as §2
# [5] = test system: corn; assay: Test C pre-/postemergence herbicide test; type: in vivo, Zea mays
# Method in brief: as §1
# [6] = test system: smallflower umbrella sedge; assay: Test C flooded paddy test; type: in vivo, Cyperus difformis
# [7] = test system: soybean; assay: Test C pre-/postemergence herbicide test; type: in vivo, Glycine max
# Method in brief: as §1
# [8] = test system: goosegrass; assay: Test C pre-/postemergence herbicide test; type: in vivo, Eleusine indica
# Method in brief: as §1
# [9] = test system: bermudagrass; assay: Test C pre-/postemergence herbicide test; type: in vivo, Cynodon dactylon
# Method in brief: as §1
# [10] = test system: velvetleaf; assay: Test A pre-/postemergence herbicide test; type: in vivo, Abutilon theophrasti
# Method in brief: as §2
# [11] = test system: velvetleaf; assay: Test C pre-/postemergence herbicide test; type: in vivo, Abutilon theophrasti
# Method in brief: as §1
# [12] = test system: johnsongrass; assay: Test C pre-/postemergence herbicide test; type: in vivo, Sorghum halepense
# Method in brief: as §1
# [13] = test system: rice; assay: Test C flooded paddy test; type: in vivo, Oryza sativa
# Method in brief: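 Injury scored visually against controls on a 0 (no effect) to 100 (complete control) scale, 12 to 14 days after treatment in greenhouse. Flooded paddy plants treated at 2-leaf stage; postemergence plants at 1- to 4-leaf stage, 2 to 18 cm tall.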
# [14] = 125 g ai/ha, scale 0 (no effect) to 100 (complete control), visual, 12 to 14 days, preemergence
# [15] = 250 g ai/ha, scale 0 to 100 (0 no effect, 100 complete control), visual, 12 to 14 days, preemergence
# [16] = Postemergence, 250 g ai/ha, scale 0 to 100, 0 no effect, 100 complete control
# [17] = postemergence, 125 g ai/ha, scale 0 to 100
# [18] = postemergence, 31 g ai/ha, scale 0 to 100
# [19] = postemergence, 62 g ai/ha, scale 0 to 100
# [20] = Postemergence, 500 g ai/ha, 0 to 100 scale, 0 no effect, 100 complete control
# [21] = Postemergence, 2000 g ai/ha, 0 to 100 scale, 0 no effect, 100 complete control
# [22] = Preemergence, 500 g ai/ha, visual rating, 0 to 100 scale (0 no effect, 100 complete control)
# [23] = Preemergence, 2000 g ai/ha, visual rating, 0 to 100 scale (0 no effect, 100 complete control)
# [24] = 62 g ai/ha, scale 0 to 100 (0 no effect, 100 complete control)
# [25] = 125 g ai/ha, scale 0 to 100 (0 no effect, 100 complete control)
# [26] = 250 g ai/ha, scale of 0 to 100, 0 is no effect, 100 is complete control
# [27] = 500 g ai/ha, visual rating after 12 to 14 days, scale 0 to 100 (0 no effect, 100 complete control)
compound,measurement,setting,value
CCn1nc(C(C)(C)C)cc1C(=O)Nc1cccc(C#N)c1 [Compound 139],"Plant response rating (0 = no effect, 100 = complete control), Cocklebur","[1]; 62 g ai/ha, preemergence",0
same,"Plant response rating, Cocklebur",[1]; [14],0
same,"Plant response rating, Cocklebur",[1]; [15],0
same,"Plant response rating, Cocklebur",[1]; [16],10
same,"Plant response rating, Cocklebur",[1]; [17],10
same,"Plant response rating, Cocklebur",[1]; [18],5
same,"Plant response rating, Cocklebur",[1]; [19],5
same,Barnyardgrass plant response rating,[2]; [20],35
same,"Plant response rating, Barnyardgrass",[2]; [21],60
same,Barnyardgrass plant response rating,[2]; [22],40
same,Barnyardgrass plant response rating,[2]; [23],60
same,Ducksalad plant response rating,[3]; [24],0
same,Ducksalad plant response rating,[3]; [25],70
same,Ducksalad plant response rating,[3]; [26],85
same,"Plant response rating, Ducksalad",[3]; [27],90
same,Morningglory plant response rating,[4]; [20],20
same,"Plant response rating, Morningglory",[4]; [21],35
same,Morningglory plant response rating,[4]; [22],30
same,Morningglory plant response rating,[4]; [23],85
same,"Plant response rating (0 = no effect, 100 = complete control), Corn","[5]; 62 g ai/ha, preemergence",0
same,"Plant response rating, Corn",[5]; [14],0
same,"Plant response rating, Corn",[5]; [15],15
same,"Plant response rating, Corn",[5]; [16],10
same,"Plant response rating, Corn",[5]; [17],10
same,"Plant response rating, Corn",[5]; [19],0
same,"Sedge, Umbrella plant response rating",[6]; [24],75
same,"Sedge, Umbrella plant response rating",[6]; [25],80
same,"Sedge, Umbrella plant response rating",[6]; [26],85
same,"Plant response rating, Sedge, Umbrella",[6]; [27],85
same,"Plant response rating, Soybean",[7]; [14],10
same,"Plant response rating, Soybean",[7]; [16],35
same,"Plant response rating, Soybean",[7]; [17],30
same,"Plant response rating, Soybean",[7]; [19],20
same,"Plant response rating (0 = no effect, 100 = complete control), Goosegrass","[8]; 62 g ai/ha, preemergence",60
same,"Plant response rating, Goosegrass",[8]; [14],85
same,"Plant response rating, Goosegrass",[8]; [16],5
same,"Plant response rating, Goosegrass",[8]; [17],0
same,"Plant response rating, Goosegrass",[8]; [19],0
same,"Plant response rating, Bermudagrass","[9]; 31 g ai/ha, scale 0 to 100, 0 no effect, 100 complete control, last section of Table C (species set of preemergence test)",10
same,"Plant response rating (0 = no effect, 100 = complete control), Bermudagrass","[9]; 62 g ai/ha, preemergence",60
same,"Plant response rating, Bermudagrass",[9]; [14],90
same,"Plant response rating, Bermudagrass",[9]; [15],95
same,"Plant response rating, Bermudagrass",[9]; [16],0
same,"Plant response rating, Bermudagrass",[9]; [17],0
same,"Plant response rating, Bermudagrass",[9]; [18],0
same,"Plant response rating, Bermudagrass",[9]; [19],0
same,Velvetleaf plant response rating,[10]; [20],25
same,"Plant response rating, Velvetleaf",[10]; [21],40
same,Velvetleaf plant response rating,[10]; [23],80
same,Velvetleaf plant response rating,"[10]; preemergence, 500 g ai/ha, visual injury, 0 to 100 scale (0 no effect, 100 complete control)",50
same,"Plant response rating, Velvetleaf",[11]; [14],30
same,"Plant response rating, Velvetleaf",[11]; [16],50
same,"Plant response rating, Velvetleaf",[11]; [17],50
same,"Plant response rating, Velvetleaf",[11]; [19],30
same,"Plant response rating (0 = no effect, 100 = complete control), Johnsongrass","[12]; 62 g ai/ha, preemergence",20
same,"Plant response rating, Johnsongrass",[12]; [14],30
same,"Plant response rating, Johnsongrass",[12]; [16],0
same,"Plant response rating, Johnsongrass",[12]; [17],0
same,"Plant response rating, Johnsongrass",[12]; [19],0
same,Rice plant response rating,[13]; [24],0
same,Rice plant response rating,[13]; [25],35
same,Rice plant response rating,[13]; [26],45
same,"Plant response rating, Rice",[13]; [27],60
